Laboratory results from patent publication US20230381142A1, “ANTILEISHMANIAL COMPOUNDS, COMPOSITIONS AND USE THEREOF” (TRUSTEES OF BOSTON UNIVERSITY, priority 2022, published 2023).
Read-outs that look alike come from different tables or passages of the source.

Columns and labels:
[1] = GSK inMac assay, host cell toxicity readout (LD MAC); type: cell-based, human; details: human
Procedure: (§1) The intramacrophage Leishmania donovani activity assay (LD AMMAC) at GlaxoSmithKline was performed as described.
(§2) Given the literature precedents described above and the apparent narrow tolerance for R^3 substitutions observed in the primary screen compounds, a thorough and methodical assessment was undertaken of tolerated groups at the three points of diversity (R^1/R^2/R^3) for the core. At this stage of the project, all analogues were assessed using a battery of assays performed in-house at GlaxoSmithKline. For antileishmanial activity, GSK's inMac assay was utilized. This assay provides two readouts of compound potency: average number of intracellular amastigotes per infected cell (AMMAC) EC50, percentage of infected cells per well (INFCELL) EC50, as well as a toxicity output derived from the number of host cells (MAC EC50). In addition, compounds were assessed for toxicity against HepG2 cells (HEPG2 EC50). Here, AMMAC EC50 values were focused on for relative potency assessments. […] It should be noted that for all compounds assessed in this project, the measured toxicity against THP-1 macrophages either equaled or exceeded that of HepG2 hepatocytes, therefore the MAC SI is used here as the more conservative estimate of therapeutic index.

[2] = test system: L. donovani intracellular amastigotes infecting THP-1 macrophages; assay: GSK intramacrophage L. donovani assay (LD AMMAC, inMac; Assay Conditions C); type: cell-based; details: Leishmania donovani
Procedure: Assay Conditions C: The intramacrophage Leishmania donovani activity assay was performed as described in Antimicrob Agents Chemother (2013) 57(7):2913-22.
as §1, §2

[3] = footnote c, read-out: THP-1 Host Cell CC50
[4] = THP-1 cells, values marked c, read-out: L. donovani amastigotes EC50 (THP-1 cells)
[5] = values marked c: THP-1 cells, read-out: L. donovani amastigotes EC50 (μM, THP-1 or B10R cells)

CC(C)Cc1n[nH]c2c1[C@H](c1ccc(F)cc1)N(c1ccc3ncnn3c1)C2=O [CMLD010993]
CC50 [1, 3]: 25.1 µM | EC50 [2, 4]: 10 µM

COc1ccc(N2C(=O)c3[nH]nc(CC(C)C)c3C2c2ccccc2OC)cc1 (centres unmarked) [CMLD010994]
CC50 [1, 3]: 25.1 µM | EC50 [2, 4]: 0.5 µM

COc1ccc(N2C(=O)c3[nH]nc(CC(C)C)c3C2c2cc(C(F)(F)F)ccc2C(F)(F)F)cc1 (centres unmarked) [CMLD010996]
CC50 [1, 3]: 25.1 µM | EC50 [2, 4]: 6.3 µM

CC(C)Cc1n[nH]c2c1C(c1ccccc1Cl)N(c1ccc(-n3ccnc3)cc1)C2=O (centres unmarked) [CMLD010998]
CC50 [1, 3]: ≥ 50.1 µM | EC50 [2, 4]: 6.3 µM

C=CCCc1n[nH]c2c1C(c1ccc(F)cc1)N(c1ccc(OC)cc1)C2=O (centres unmarked) [CMLD011024]
CC50 [1, 3]: 3.2 µM | EC50 [2, 4]: 1.6 µM

C=C(C)CCc1n[nH]c2c1C(c1ccc(F)cc1)N(c1ccc(OC)cc1)C2=O (centres unmarked) [CMLD011025]
CC50 [1, 3]: 1.6 µM | EC50 [2, 4]: 0.5 µM

COc1ccc(CN2C(=O)c3[nH]nc(CC(C)C)c3C2c2ccc(F)cc2)cc1 (centres unmarked) [CMLD011026]
CC50 [1, 3]: 31.6 µM | EC50 [2, 4]: 12.6 µM

COc1ccc(N2C(=O)c3[nH]nc(CC(C)C)c3C2c2ccc(OC)nc2)cc1 (centres unmarked) [CMLD011027]
CC50 [1, 3]: > 50 µM | EC50 [2, 4]: > 50 µM

COc1ccc(N2C(=O)c3[nH]nc(CC(C)C)c3C2c2cc(F)nc(F)c2)cc1 (centres unmarked) [CMLD011028]
CC50 [1, 3]: > 50 µM | EC50 [2, 4]: > 50 µM

CC(C)Cc1n[nH]c2c1C(c1ccc(F)cc1)N(c1ccc(O)cc1)C2=O (centres unmarked) [CMLD011029]
CC50 [1, 3]: 39.8 µM | EC50 [2, 4]: 5 µM

CC(C)Cc1n[nH]c2c1C(c1ccc(F)cc1)N(C1CCOCC1)C2=O (centres unmarked) [CMLD011030]
CC50 [1, 3]: > 50 µM | EC50 [2, 4]: 31.6 µM

CC(C)Cc1n[nH]c2c1C(c1ccc(F)cc1)N(c1ccc(C(=O)O)cc1)C2=O (centres unmarked) [CMLD011031]
CC50 [1, 3]: > 50 µM | EC50 [2, 4]: > 50 µM

COc1ccc(N2C(=O)c3[nH]nc(CC(C)C)c3C2c2ccc(C(=O)O)cc2)cc1 (centres unmarked) [CMLD011032]
CC50 [1, 3]: > 50 µM | EC50 [2, 4]: > 50 µM

COC(=O)c1ccc(N2C(=O)c3[nH]nc(CC(C)C)c3C2c2ccc(F)cc2)cc1 (centres unmarked) [CMLD011033]
CC50 [1, 3]: 31.6 µM | EC50 [2, 4]: 1.6 µM

COC(=O)c1ccc(C2c3c(CC(C)C)n[nH]c3C(=O)N2c2ccc(OC)cc2)cc1 (centres unmarked) [CMLD011034]
CC50 [1, 3]: 39.8 µM | EC50 [2, 4]: 25.1 µM

CCC(C)(COC(C)=O)CN1C(=O)c2[nH]nc(CC(C)C)c2C1c1ccc(F)cc1 (centres unmarked) [CMLD011035]
CC50 [1, 3]: 25.1 µM | EC50 [2, 4]: 5 µM

CO[C@H]1CC[C@H](N2C(=O)c3[nH]nc(CC(C)C)c3C2c2ccc(F)cc2)CC1 (some centres unmarked) [CMLD011036]
CC50 [1, 3]: > 50 µM | EC50 [2, 4]: 25.1 µM

CC(=O)OCC(CO)N1C(=O)c2[nH]nc(CC(C)C)c2C1c1ccc(F)cc1 (centres unmarked) [CMLD011037]
CC50 ([1]; host THP-1 cells): ≥ 50.1 µM | EC50 [2, 5]: ≥ 50.1 µM

CC(C)Cc1n[nH]c2c1C(c1ccc(F)cc1)N(CC(C)(CO)CO)C2=O (centres unmarked) [CMLD011038]
CC50 ([1]; host THP-1 cells): ≥ 50.1 µM | EC50 [2, 5]: ≥ 50.1 µM

COc1ccc(OC)c(N2C(=O)c3[nH]nc(CC(C)C)c3C2c2ccc(F)cc2)c1 (centres unmarked) [CMLD011040]
CC50 [1, 3]: ≥ 50.1 µM | EC50 [2, 4]: 25.1 µM

CC(C)Cc1n[nH]c2c1C(C1CCCCC1)N(c1ccc(C(C)(C)C)cc1)C2=O (centres unmarked) [CMLD011042]
CC50 [1, 3]: ≥ 50.1 µM | EC50 [2, 4]: 2.5 µM

CC(C)Cc1n[nH]c2c1C(C1CCCCC1)N(c1ccc3c(c1)OCO3)C2=O (centres unmarked) [CMLD011043]
CC50 [1, 3]: 15.8 µM | EC50 [2, 4]: 5 µM

COc1cccc(N2C(=O)c3[nH]nc(CC(C)C)c3C2C2CCCCC2)c1 (centres unmarked) [CMLD011044]
CC50 ([1]; host THP-1 cells): ≥ 50.1 µM | EC50 [2, 5]: 6.3 µM

COc1ccccc1N1C(=O)c2[nH]nc(CC(C)C)c2C1C1CCCCC1 (centres unmarked) [CMLD011045]
CC50 ([1]; host THP-1 cells): 25.1 µM | EC50 [2, 5]: 10 µM

COc1ccccc1N1C(=O)c2[nH]nc(CC(C)C)c2C1c1ccc(F)cc1 (centres unmarked) [CMLD011046]
CC50 [1, 3]: > 50 µM | EC50 [2, 4]: 20 µM

CC(C)Cc1n[nH]c2c1C(c1ccccc1Cl)N(c1ccc(C(C)(C)C)cc1)C2=O (centres unmarked) [CMLD011047]
CC50 ([1]; host THP-1 cells): 7.9 µM | EC50 [2, 5]: 3.2 µM

COc1cc(N2C(=O)c3[nH]nc(CC(C)C)c3C2c2ccc(F)cc2)ccc1F (centres unmarked) [CMLD011073]
CC50 ([1]; host THP-1 cells): 15.8 µM | EC50 [2, 5]: 20 µM

COc1ccc(N2C(=O)c3[nH]nc(CC(C)C)c3C2c2nccs2)cc1 (centres unmarked) [CMLD011075]
CC50 [1, 3]: > 50 µM | EC50 [2, 4]: 20 µM

COc1ccc(N2C(=O)c3[nH]nc(CC(C)C)c3[C@H]2c2cccc(C(F)(F)F)c2)cn1 [CMLD011076]
CC50 ([1]; host THP-1 cells): 15.8 µM | EC50 [2, 5]: 10 µM

COc1cc(N2C(=O)c3[nH]nc(CC(C)C)c3C2c2ccccc2Br)cc(OC)c1OC (centres unmarked) [CMLD011077]
CC50 ([1]; host THP-1 cells): 6.3 µM | EC50 [2, 5]: 6.3 µM

CC(C)Cc1n[nH]c2c1C(c1ccccc1Cl)N(c1ccc(F)cc1)C2=O (centres unmarked) [CMLD011078]
CC50 ([1]; host THP-1 cells): 20 µM | EC50 [2, 5]: 4 µM

COc1ccc(N2C(=O)c3[nH]nc(CC(C)C)c3C2c2ccc(F)cc2F)cc1 (centres unmarked) [CMLD011079]
CC50 [1, 3]: 25.1 µM | EC50 [2, 4]: 2 µM

COC(=O)c1ccc(N2C(=O)c3[nH]nc(CC(C)C)c3C2c2cccc(C(F)(F)F)c2)cc1 (centres unmarked) [CMLD011080]
CC50 ([1]; host THP-1 cells): 39.8 µM | EC50 [2, 5]: 10 µM

CC(C)Cc1n[nH]c2c1C(c1cccc(C(F)(F)F)c1)N(c1ccc(Br)cc1)C2=O (centres unmarked) [CMLD011081]
CC50 [1, 3]: 31.6 µM | EC50 [2, 4]: 31.6 µM

CC(C)Cc1n[nH]c2c1C(C1CCCCC1)N(c1ccc(Br)cc1)C2=O (centres unmarked) [CMLD011087]
CC50 ([1]; host THP-1 cells): 7.9 µM | EC50 [2, 5]: 6.3 µM

COc1ccc(N2C(=O)c3[nH]nc(CC(C)C)c3C2c2cccc(OC)c2)cc1 (centres unmarked) [CMLD011088]
CC50 [1, 3]: 20 µM | EC50 [2, 4]: 4 µM

COc1ccc(N2C(=O)c3[nH]nc(CC(C)C)c3C2C2CCCCC2)cc1F (centres unmarked) [CMLD011090]
CC50 ([1]; host THP-1 cells): ≥ 50.1 µM | EC50 [2, 5]: 5 µM

Cc1ccc(CN2C(=O)c3[nH]nc(CC(C)C)c3C2c2ccc(F)cc2)o1 (centres unmarked) [CMLD011092]
CC50 [1, 3]: 39.8 µM | EC50 [2, 4]: 15.9 µM

COc1ccc(N2C(=O)c3[nH]nc(-c4ccc(Cl)cc4Cl)c3C2c2ccc(F)cc2)cc1 (centres unmarked) [CMLD011093]
CC50 [1, 3]: > 50 µM | EC50 [2, 4]: 20 µM

COC(=O)c1ccc(N2C(=O)c3[nH]nc(CC(C)C)c3C2C2CCCCC2)cc1 (centres unmarked) [CMLD011094]
CC50 [1, 3]: > 50 µM | EC50 [2, 4]: 39.8 µM

CC(C)Cc1n[nH]c2c1C(c1ccc(F)cc1)N(c1ccccn1)C2=O (centres unmarked) [CMLD011095]
CC50 [1, 3]: > 50 µM | EC50 [2, 4]: 20 µM

COc1ccc(N2C(=O)c3[nH]nc(CC(C)C)c3C2c2ccc(Cl)cc2)cc1 (centres unmarked) [CMLD011096]
CC50 [1, 3]: 15.9 µM | EC50 [2, 4]: 4 µM

CC(C)Cc1n[nH]c2c1C(c1ccc(F)cc1)N(c1ccc(F)cc1F)C2=O (centres unmarked) [CMLD011097]
CC50 [1, 3]: 39.8 µM | EC50 [2, 4]: 12.6 µM

CC(C)Cc1n[nH]c2c1C(c1ccc(F)cc1)N(c1cccnc1)C2=O (centres unmarked) [CMLD011098]
CC50 [1, 3]: > 50 µM | EC50 [2, 4]: 25.1 µM

COc1ccc(N2C(=O)c3[nH]nc(CC(C)C)c3C2c2cccc(Cl)c2)cc1 (centres unmarked) [CMLD011099]
CC50 [1, 3]: 39.8 µM | EC50 [2, 4]: 7.9 µM

COc1ccc(N2C(=O)c3[nH]nc(CC(C)C)c3C2c2ccccc2F)cc1 (centres unmarked) [CMLD011102]
CC50 [1, 3]: 31.6 µM | EC50 [2, 4]: 3.2 µM

COc1ccc(N2C(=O)c3[nH]nc(CC(C)C)c3C2c2ccccc2Cl)c(OC)c1 (centres unmarked) [CMLD011103]
CC50 [1, 3]: 20 µM | EC50 [2, 4]: 10 µM

COc1ccc(N2C(=O)c3[nH]nc(CC(C)C)c3C2c2ccsc2)cc1 (centres unmarked) [CMLD011104]
CC50 [1, 3]: > 50 µM | EC50 [2, 4]: 6.3 µM

CC(C)Cc1n[nH]c2c1C(c1ccc(F)cc1)N(c1ccc3c(c1)OC(F)(F)O3)C2=O (centres unmarked) [CMLD011105]
CC50 [1, 3]: 12.6 µM | EC50 [2, 4]: 2.5 µM

COc1ccc(N2C(=O)c3[nH]nc(CC(C)C)c3C2c2cccc(C(F)(F)F)c2)cc1F (centres unmarked) [CMLD011106]
CC50 [1, 3]: 25.1 µM | EC50 [2, 4]: 6.3 µM

COc1ccc(N2C(=O)c3[nH]nc(CC(C)C)c3C2c2ccccc2Br)c(OC)c1 (centres unmarked) [CMLD011109]
CC50 [1, 3]: 15.8 µM | EC50 [2, 4]: 6.3 µM

COc1ccc(N2C(=O)c3[nH]nc(CC(C)C)c3C2c2cccs2)cc1 (centres unmarked) [CMLD011110]
CC50 [1, 3]: > 50 µM | EC50 [2, 4]: 7.9 µM
